Among the data in patent US20250129028A1, “COMPOUNDS AND METHODS FOR YAP/TEAD MODULATION AND INDICATIONS THEREFOR” (Opna Bio SA, priority 2022, published 2025) are IC50 values, retold here.

Molecules are shown by their SMILES.

The test system of the first assay is TEAD-dependent transcription. Put plainly: TEAD-dependent transcription cell-based reporter assay (MSTO-211H+12XGTIIC luciferase). Details: species or system human. As to conditions: Homo sapiens; MSTO-211H+12XGTIIC cell line, luciferase signal normalized to cell viability, 24 hours compound incubation; read-out: MSTO-211H GMean IC50 (uM) Cell Assay Reporter Cell Variant: TEAD. The method, boiled down: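 MSTO-211H mesothelioma cells stably carrying a 12xGTIIC TEAD-response-element luciferase reporter, treated with serial compound dilutions for 24 h at 37 °C. Luminescence normalized to CellTiter-Fluor viability signal; % inhibition versus DMSO and 20 μM K-975 controls, IC50 by nonlinear regression.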
Turning to `CS(=O)(=O)CCC(=O)N1CCc2ccc(Oc3ccc(C(F)(F)F)cc3)cc2C1CC1CN(C(=O)CO)C1` (stereo not drawn) [P-0202, 1-(1-((1-(2-hydroxyacet-yl)azetidin-3-yl)methyl)-7-(4-(trifluoromethyl)-phenoxy)-3,4-dihydro-isoquinolin-2(1H)-yl)-3-(methylsulfonyl)-propan-1-one], the IC50 lay within 0.001 to 10 µM.

Regarding `CC(=O)N1CCC(C2c3cc(Oc4ccc(C(F)(F)F)cc4)ccc3CCN2C(=O)CCS(C)(=O)=O)C1` (stereo not drawn) [P-0203, 1-(1-(1-acetylpyrrolidin-3-yl)-7-(4-(trifluorometh-yl)phenoxy)-3,4-dihydro-isoquinolin-2(1H)-yl)-3-(methylsulfonyl)-propan-1-one], the IC50 was 0.001 to 10 µM.

Take `CS(=O)(=O)CCC(=O)N1CCc2ccc(Oc3ccc(C(F)(F)F)cc3)c(Br)c2C1` [P-0205, 1-(8-bromo-7-(4-(trifluoromethyl)phen-oxy)-3,4-dihydroisoquin-olin-2(1H)-yl)-3-(methyl-sulfonyl)propan-1-one]: the IC50 lay within 0.001 to 10 µM.

Consider `CS(=O)(=O)CCC(=O)N1CCc2ccc(Oc3ccc(C(F)(F)F)cc3)c(-c3cnn(CC4CC4)c3)c2C1` [P-0206, 1-(8-(1-(cyclopropyl-methyl)-1H-pyrazol-4-yl)-7-(4-(trifluorometh-yl)phenoxy)-3,4-dihydro-isoquinolin-2(1H)-yl)-3-(methylsulfonyl)-propan-1-one], for which the concentration for half-maximal inhibition (IC50) lay in the range of 0.001 to 10 µM.

Consider `CS(=O)(=O)CCC(=O)N1CCc2ccc(Oc3ccc(C(F)(F)F)cc3)c(-c3ccc(C4CC4)nc3)c2C1` [P-0207, 1-(8-(6-cyclopropylpyr-idin-3-yl)-7-(4-(trifluoro-methyl)phenoxy)-3,4-dihydroisoquinolin-2(1H)-yl)-3-(methylsul-fonyl)propan-1-one], for which the IC50 lay within 0.001 to 10 µM.

Take `CS(=O)(=O)CCC(=O)N1CCc2ccc(Oc3ccc(C(F)(F)F)cc3)c(-n3cc(C(F)(F)F)cn3)c2C1` [P-0208, 3-(methylsulfonyl)-1-(8-(4-(trifluoromethyl)-1H-pyrazol-1-yl)-7-(4-(trifluoromethyl)phen-oxy)-3,4-dihydroisoquin-olin-2(1H)-yl)propan-1-one]: the concentration for half-maximal inhibition (IC50) fell in the range of 0.001 to 10 µM.

Consider `CCC1c2cc(Oc3ccc(C(F)(F)F)cc3)ccc2CCN1C(=O)CCS(C)(=O)=O` (stereo not drawn) [P-0209, 1-(1-ethyl-7-(4-(trifluoro-methyl)phenoxy)-3,4-dihydroisoquinolin-2(1H)-yl)-3-(methylsul-fonyl)propan-1-one], for which the 50% inhibitory concentration (IC50) was 0.001 to 10 µM.

Take `CS(=O)(=O)CCC(=O)N1CCc2ccc(Oc3ccc(C(F)(F)F)cc3)cc2C1C1CCN(C(=O)C2CC2)CC1` (stereo not drawn) [P-0210, 1-(1-(1-(cyclopropanecarbonyl)piperidin-4-yl)-7-(4-(trifluoromethyl)phenoxy)-3,4-dihydroisoquinolin-2(1H)-yl)-3-(methylsulfonyl)propan-1-one]: the half-maximal inhibitory concentration (IC50) lay within 0.001 to 10 µM.

As to `CS(=O)(=O)CCC(=O)N1CCc2ccc(Oc3ccc(C(F)(F)F)cc3)cc2C1C1CCOCC1` (stereo not drawn) [P-0211, 3-(methylsulfonyl)-1-(1-(tetrahydro-2H-pyran-4-yl)-7-(4-(trifluorometh-yl)phenoxy)-3,4-dihydro-isoquinolin-2(1H)-yl)-propan-1-one], the IC50 fell in the range of 0.001 to 10 µM.

As for `CS(=O)(=O)CCC(=O)N1CCc2ccc(Oc3ccc(C(F)(F)F)cc3)cc2C1C1CCC(C(F)(F)F)CC1` (stereo not drawn) [P-0212, 3-(methylsulfonyl)-1-(1-(4-(trifluoromethyl)-cyclohexyl)-7-(4-(trifluoromethyl)phen-oxy)-3,4-dihydroisoquin-olin-2(1H)-yl)propan-1-one], the IC50 lay within 0.001 to 10 µM.

Regarding `CC(=O)N1CCC(c2c(Oc3ccc(C(F)(F)F)cc3)ccc3c2CN(C(=O)CCS(C)(=O)=O)CC3)CC1` [P-0213, 1-(8-(1-acetylpiperidin-4-yl)-7-(4-(trifluorometh-yl)phenoxy)-3,4-dihydro-isoquinolin-2(1H)-yl)-3-(methylsulfonyl)pro-pan-1-one], the IC50 lay in the range of 0.001 to 10 µM.

With `CC(=O)N1CC=C(c2c(Oc3ccc(C(F)(F)F)cc3)ccc3c2CN(C(=O)CCS(C)(=O)=O)CC3)CC1` [P-0214, 1-(8-(1-acetyl-1,2,3,6-tetrahydropyridin-4-yl)-7-(4-(trifluoromethyl)-phenoxy)-3,4-dihydroiso-quinolin-2(1H)-yl)-3-(methylsulfonyl)propan-1-one], the IC50 was in the range of 10 to 100 µM.

As for `CC(=O)N1CCC(c2c(Oc3ccc(C(F)(F)F)cc3)ccc3c2CN(C(=O)CCS(C)(=O)=O)CC3)C1` (stereo not drawn) [P-0215, 1-(8-(1-acetylpyrrolidin-3-yl)-7-(4-(trifluorometh-yl)phenoxy)-3,4-dihydro-isoquinolin-2(1H)-yl)-3-(methylsulfonyl)pro-pan-1-one], the concentration for half-maximal inhibition (IC50) fell in the range of 10 to 100 µM.

Consider `CC(=O)N1CC(Cc2c(Oc3ccc(C(F)(F)F)cc3)ccc3c2CN(C(=O)CCS(C)(=O)=O)CC3)C1` [P-0216, 1-(8-((1-acetylazetidin-3-yl)methyl)-7-(4-(trifluoromethyl)phen-oxy)-3,4-dihydroisoquin-olin-2(1H)-yl)-3-(methyl-sulfonyl)propan-1-one], for which the concentration for half-maximal inhibition (IC50) lay in the range of 0.001 to 10 µM.

On to `CCC1c2cc(Oc3ccc(C(F)(F)F)cc3)ccc2CCN1C(=O)CNC(N)=O` (stereo not drawn) [P-0219, 1-(2-(1-ethyl-7-(4-(trifluoromethyl)phen-oxy)-3,4-dihydroisoquin-olin-2(1H)-yl)-2-oxoeth-yl)urea], for which the 50% inhibitory concentration (IC50) fell in the range of 0.001 to 10 µM.

On to `CS(=O)(=O)CCC(=O)N1CCc2ccc(Oc3ccc(C(F)(F)F)cc3)c(/C=C/C3CC3)c2C1` [P-0220, (E)-1-(8-(2-cyclopropyl-vinyl)-7-(4-(trifluoro-methyl)phenoxy)-3,4-dihydroisoquinolin-2(1H)-yl)-3-(methylsul-fonyl)propan-1-one], for which the 50% inhibitory concentration (IC50) was 0.001 to 10 µM.

Turning to `CC(C)=Cc1c(Oc2ccc(C(F)(F)F)cc2)ccc2c1CN(C(=O)CCS(C)(=O)=O)CC2` [P-0221, 1-(8-(2-methylprop-1-en-1-yl)-7-(4-(trifluorometh-yl)phenoxy)-3,4-dihydro-isoquinolin-2(1H)-yl)-3-(methylsulfonyl)pro-pan-1-one], the IC50 was 0.001 to 10 µM.

For the molecule `CS(=O)(=O)CCC(=O)N1CCc2ccc(Oc3ccc(C(F)(F)F)cc3)c(/C=C/C3CCNCC3)c2C1` [P-0222, (E)-3-(methylsulfonyl)-1-(8-(2-(piperidin-4-yl)-vinyl)-7-(4-(trifluoro-methyl)phenoxy)-3,4-dihydroisoquinolin-2(1H)-yl)propan-1-one], the IC50 is 0.001 to 10 µM.

`C=CC(=O)N1CCC(C2c3cc(Oc4ccc(C(F)(F)F)cc4)ccc3CCN2C(=O)CCS(C)(=O)=O)CC1` (stereo not drawn) [P-0223, 1-(4-(2-(3-(methylsulfon-yl)propanoyl)-7-(4-(trifluoromethyl)phen-oxy)-1,2,3,4-tetrahydro-isoquinolin-1-yl)piper-idin-1-yl)prop-2-en-1-one]: the 50% inhibitory concentration (IC50) is 0.001 to 10 µM.

Take `COC(=O)[C@@H]1Cc2ccc(Oc3ccc(C(F)(F)F)cc3)cc2CN1C(=O)CCS(C)(=O)=O` [P-0224, methyl (S)-2-(3-(methyl-sulfonyl)propanoyl)-7-(4-(trifluoromethyl)-phenoxy)-1,2,3,4-tetra-hydroisoquinoline-3-carboxylate]: the IC50 lay in the range of 0.001 to 10 µM.

As to `CS(=O)(=O)c1nccc(N2CCc3ccc(Oc4ccc(C(F)(F)F)cc4)cc3C2)n1` [P-0226, 2-(2-(methylsulfonyl)-pyrimidin-4-yl)-7-(4-(trifluoromethyl)phen-oxy)-1,2,3,4-tetrahydro-isoquinoline], the 50% inhibitory concentration (IC50) was 0.001 to 10 µM.

As for `CS(=O)(=O)c1ccnc(N2CCc3ccc(Oc4ccc(C(F)(F)F)cc4)cc3C2)c1` [P-0227, 2-(4-(methylsulfonyl)pyr-idin-2-yl)-7-(4-(trifluoro-methyl)phenoxy)-1,2,3,4-tetrahydroisoquinoline], the half-maximal inhibitory concentration (IC50) was in the range of 0.001 to 10 µM.

Take `NC(=O)c1cccc(N2CCc3ccc(Oc4ccc(C(F)(F)F)cc4)cc3C2)n1` [P-0228, 6-(7-(4-(trifluoromethyl)-phenoxy)-3,4-dihydro-isoquinolin-2(1H)-yl)-picolinamide]: the IC50 fell in the range of 0.001 to 10 µM.

On to `CNC(=O)c1cccc(N2CCc3ccc(Oc4ccc(C(F)(F)F)cc4)cc3C2)n1` [P-0229, N-methyl-6-(7-(4-(trifluoromethyl)phen-oxy)-3,4-dihydroisoquin-olin-2(1H)-yl)picolin-amide], for which the IC50 was 0.001 to 10 µM.

In the case of `NS(=O)(=O)c1ccnc(N2CCc3ccc(Oc4ccc(C(F)(F)F)cc4)cc3C2)c1` [P-0230, 2-(7-(4-(trifluorometh-yl)phenoxy)-3,4-dihydro-isoquinolin-2(1H)-yl)-pyridine-4-sulfonamide], the concentration for half-maximal inhibition (IC50) lay within 0.001 to 10 µM.

With `CNC(=O)c1cncc(N2CCc3ccc(Oc4ccc(C(F)(F)F)cc4)cc3C2)n1` [P-0231, N-methyl-6-(7-(4-(trifluoromethyl)phen-oxy)-3,4-dihydroisoquin-olin-2(1H)-yl)pyrazine-2-carboxamide], the IC50 lay within 0.001 to 10 µM.

Consider `O=C(NC1CCCC1)N1CCc2c(cccc2Oc2ccc(C(F)(F)F)cc2)C1` [P-0232, N-cyclopentyl-5-(4-(trifluoromethyl)phen-oxy)-3,4-dihydroisoquin-oline-2(1H)-carboxamide], for which the half-maximal inhibitory concentration (IC50) was 0.001 to 10 µM.

Regarding `CC(C)NC(=O)N1CCc2c(cccc2Oc2ccc(C(F)(F)F)cc2)C1` [P-0233, N-isopropyl-5-(4-(trifluoromethyl)phen-oxy)-3,4-dihydroisoquin-oline-2(1H)-carboxamide], the 50% inhibitory concentration (IC50) lay in the range of 0.001 to 10 µM.

In the case of `CC(C)C(=O)N1CCc2c(cccc2Oc2ccc(C(F)(F)F)cc2)C1` [P-0234, 2-methyl-1-(5-(4-(trifluoromethyl)phen-oxy)-3,4-dihydroisoquin-olin-2(1H)-yl)propan-1-one], the IC50 was 0.001 to 10 µM.

Still in this assay, the particulars now being: MSTO-211H+12XGTIIC cell line, luciferase signal normalized to cell viability, 24 hours compound incubation; read-out: MSTO-211H GMean IC50 (uM) Cell Assay Reporter Cell Variant: TEAD.
For `CC(=O)N1CCC(C2c3cc(Oc4ccc(C(F)(F)F)cc4)ccc3CCN2C(=O)CCS(C)(=O)=O)C1` (stereo not drawn) [P-0204, 1-(1-(1-acetylpyrrolidin-3-yl)-7-(4-(trifluorometh-yl)phenoxy)-3,4-dihydro-isoquinolin-2(1H)-yl)-3-(methylsulfonyl)-propan-1-one], the IC50 is 0.001 to 10 µM.
